Assay [1] relates to collagen-induced arthritis (CIA) in the mouse. Description: Murine collagen-induced arthritis model. In kind it is in vivo. As to the method: Male DBA/1J mice (7-8 weeks of age) were immunized through a subcutaneous injection of 0.1 mL of a collagen-adjuvant emulsion (0.1 mg chick type II collagen in complete Freund's adjuvant) at the base of the tail. Mice were then randomly assigned to treatment or control groups in the following manner: Compound 43 (n=10); 45% 2-hydroxypropyl betacyclodextrin in 0.9% saline vehicle control (n-10); untreated (n=5) and dexamethasone positive control (n=5). After three weeks the animals were boosted with a second injection of chick type II collagen emulsified at 1.0 mg/mL in incomplete Freund's adjuvant. This second injection is required for reproducible induction of disease. In control animals, clinical signs of arthritis manifested as erythema and edema of the paws and tarsal/metatarsal joints usually appear within 1-2 weeks following the second immunization. Compounds were evaluated for their ability to delay the onset of or reduce the development of arthritis (prophylactic regime). Vehicle, dexamethasone positive control (0.075 mg/kg) and compound 43 (10 mg/kg) were administered twice daily (50 microliter per injection) by i.p. injection beginning on the day of the second collagen injection. The mice continued to receive doses until the last animal in the vehicle control group reached the seventh day of having established disease. In this particular case, this necessitated treatment for 25 days including the day of the booster injection.
The development of clinical arthritis (disease progression) was monitored daily after the second collagen injection. All four limbs were clinically evaluated by a trained observer unfamiliar (blinded) with the treatment group identity, and scored on a scale of 0-4 for disease severity (redness and swelling) according to the following criteria.
Inflammation was defined as any redness or swelling (enlargement) of any part of any paw. Established disease was defined as a qualitative score of paw inflammation of 2 or greater, that persists for at least 24 hours. In addition, paw widths for all four limbs were measured by a blinded observer daily using precision, constant tension calipers.
At the end of the study each animal was euthanized by an overdose of halothane anesthesia. Joints both distal to the knee and including the knee were dissected and analyzed by histology. Limb joints were fixed in 10% formalin buffer and decalcified in 10% formic acid for 48 hours, then processed for paraffin embedding. Serial sections (5-7 micrometer thick) were stained with haematoxylin and eosin (H & E). Histopathological alterations of the tarsal and metatarsal joints were graded “blind” by a certified pathologist and a score assigned based on a ranking system.
Mice were sacrificed on the 25th day after the second collagen injection corresponding to approximately the 10th day of established disease. All four paws from each animal in the study were removed, fixed and processed for blinded histopathological examination by an ACVP board certified veterinary pathologist. Joint pathology for each foot was classified on a scale of 0 to 4, with 0 being normal and 4 the most severely affected. Lesion grades were assigned based on the most severe lesion(s) present in the paw according to the following scale:
The individual paw scores were then summed to obtain a total for each animal with a maximum possible score for an animal being 16. Group values were obtained by averaging the individual animal scores.

The test system of the next assay is naive CD4+ T-cells. Nature of the assay: Naive CD4+ T-cell proliferation (AND-TCR transgenic). It counts as cell-based, mouse. As for the experimental part: AND-TCR transgenic mice (Kaye J. et al., Nature 341:746-749, 1989) were used to provide a source of naive-antigen specific CD4+T cells. The AND-T cell antigen receptor recognizes a peptide derived from pigeon cytochrome C (pcc) in the context of the I-E^k class II MHC molecule.
To examine the role of a test compound in naive CD4 T cell activation and proliferation, 1×10^5 AND-lymph node T cells were cultured with 1×10^6 irradiated B10.BR spleen cells in the presence of varying concentrations of pcc peptide (0-10 μM) in 96 well plates. Proliferation was assessed by ^3H thymidine incorporation. All assay conditions were conducted in triplicate. Cell surface activation phenotype of T cells was assessed by flow cytometric analysis.

In assay [2] the test system is mixed-lymphocyte-reaction. Nature of the assay: One way and two way mixed-lymphocyte-reaction (MLR). To be noted: read-out: inhibition of proliferation in MLR. It counts as cell-based.
For assay [3], the system named is T1, High Affinity Rolipram Binding Site of PDE4 in Mouse Brain.
T1 construct: other: mouse brain membranes, [3H]-Rolipram; X marks this range; other: mouse brain membranes, [3H]; Suspension was centrifuged twice at 30,000×G at 4° C. and the supernatant discarded
Description: Displacement of [3H]-rolipram from its high affinity binding site (HARBS). On the technique in general: Loss of bound radioactivity is the signal in a displacement assay; it reports binding, not function.

The subject of the next assay is Th1 cells. Nature of the assay: Proliferation of differentiated Th1 CD4+ T cells. In kind it is cell-based, mouse. As to conditions: CD4+ T cells already differentiated into Th1 phenotype. As for the experimental part: The differentiation of naive CD4 T cells toward Th1 and Th2 lineages was performed as follows: 1×10^5 AND-lymph node T cells were cultured with […] B10.BR irradiated spleen cells in 2 ml of culture media with the following supplements: for Th1 cell differentiation, 100 U/mL IFNγ, 25U/mL IL2 and 10 ug/mL anti-IL4; for Th2 cell differentiation, 150 U/mL IL4, 25 U/mL IL2 and 10 ug/mL anti-IFNγ. After 3-4 days the wells were split 1:4 with the same additions. After 7 days the cells were harvested and washed 3 times to remove cytokines in the supernatents. 1×10^5 cultured cells were restimulated with 5×10^5 irradiated B10BR spleen cells +5 μM pcc peptide in 250 μl culture media without any added cytokines. The supernatents were harvested after 40 hrs and assessed for IL2, IL4 and IFNγ by ELISA. Test compounds were added throughout the differentiation of the culture.
Cultured Th1 and Th2 cells generated in the absence of test compounds were tested for proliferation and cytokine activity as described above during antigen stimulation in the presence of compound.

Assay [4] concerns TNBS-induced colitis in the rat. Nature of the assay: TNBS-induced colitis model of inflammatory bowel disease in the rat.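 As to all read-outs here: rat colitis induced by intracolonic TNBS in 50% ethanol, distal colon assessed at sacrifice on day 7, with saline-instilled vehicle-treated rats as controls.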 As to conditions: for MPO Activity (U/mg): colonic tissue.
Description: Colitis was induced by intracolonic instillation of the hapten TNBS (60 mg/mL) in 0.5 mL of 50% ethanol. […] An additional group of rats received saline intracolonically in place of TNBS/ethanol and was treated with vehicle at the same times as outlined above. Body weights were recorded at the beginning of the study and at days 2 and 7.
The rats were sacrificed on the 7th day after the induction of colitis and the extent of damage and inflammation was assessed. After the rats were sacrificed, the distal colon was removed and pinned out on a wax platform. The presence or absence of diarrhea was noted, as well as the presence and severity of adhesions between the colon and other organs, and the severity and extent of colonic damage. […] After scoring, a sample of colonic tissue was excised for measurement of myeloperoxidase activity as an index of granulocyte infiltration (see Wallace et al., Gastroenterology 117: in press, 1999; and Morris et al., Gastroenterology 96:795-803, 1989). This tissue sample was 1 cm long (along the axis of the colon) and 5 mm wide and was taken from a region of macroscopically visible damage (or the corresponding region in any rats in which there was no damage). The remainder of the tissue was fixed in neutral buffered formalin and processed by routine methods for subsequent evaluation by light microscopy. In a blinded manner, the sample of colonic tissue from each rat was examined for evidence of mucosal ulceration and inflammation. The percentage of the luminal surface of the section in which ulceration was present was calculated.
[5] abbreviates: 10 mg/kg i.p. twice daily, prophylactic, Day 25 after collagen boost.
The mark [6] stands for this setting: 10 mg/kg intracolonically at 12 h intervals for one week, day 7.

The values that follow come from patent publication US20030186943A1, “Substituted gamma-phenyl-delta-lactams and uses related thereto” (Inflazyme Pharmaceuticals Ltd., priority 1998, published 2003).

As a reminder, the pIC50 is the negative decadic logarithm of the IC50, by convention in mol/L.

pIC50: −log10 of the molar value. Several values for one entry are separate records, joined by “and”; a condition that tells them apart may be missing. Identical values can stand only once.

With `COc1cc(CC2C[C@@H](c3ccc(OC)c(OC4CCCC4)c3)COC2=O)ccc1O` (stereo partly shown) [Compound 43], in assay [1] (10 mg/kg i.p. bid, day 25), the “reduction of arthritis score compared to the vehicle group” value was found to be 35%, the “reduction of histopathological score compared to the vehicle group” value came to 29% and the “reduction of paw edema compared to the vehicle group” value worked out at 42%. The “Histopathological Score (range)” value in assay [1] (10 mg/kg i.p. twice daily, Day 25, maximum possible score 16) is 7.7 (1-15). In addition, in assay [1] (setting [5]), the “Paw Arthritis Score” value is 3.3 ± .64 and the “Paw Edema (1/100 in.)” value was 0.052 ± .0051 1/100 in. Also, the “rate of disease progression as assessed by paw score” value in assay [1] (10 mg/kg i.p., bid, last 10 days of the study) is recorded as “significantly reduced”. In the assay with naive CD4+ T-cells (Mus musculus, T-cell, @5 μM), this molecule had an inhibition at 5 µM of more than 70%. In addition, the inhibition at 20 µM in assay [2] is not below 50%. In addition, in assay [3], the “times less potent than rolipram for interaction with the HARBS conformer of PDE4” value is recorded as “approximately 28 fold”. Moreover, the negative logarithm of the IC50 (pIC50) in assay [3] (read-out: IC50 for displacement of 3H-rolipram from high-affinity binding site (HARBS activity), mouse brain) was 6.60. Moreover, the “inhibition of Th1 cells” value with Th1 cells is listed as “approx. 30%”. In assay [4] (10 mg/kg), the “colonic damage score (% of vehicle)” value was 49 % of vehicle, the “histological score (% of control)” value is listed as 52 % of control, the “incidence of adhesions (% of vehicle)” value is listed as 36 % of vehicle and the “thickness of the bowel wall (% of vehicle)” value was 30 % of vehicle. In addition, the “total reduction in the global colitis score compared to vehicle treated animals” value in assay [4] (10 mg/kg) is given as 51%. In assay [4] (10 mg/kg intracolonically at 12 h intervals for one week), the Mortality is on record as 0/8. Further, in assay [4] (setting [6]), the “Adhesion (Incidence)” value is given as “(3/8)^ζ”, the “Adhesion Score” value is reported as 0.5 ± 0.3, the “Bowel Thickness (mm)” value was 1.67 ± 0.28 mm and the “Damage Score” value is 3.4 ± 0.9. In addition, in assay [4] (setting [6]), the “Global Colitis Score” value turned out to be 5.86 ± 1.35 and the “MPO Activity (U/mg)” value is given as 65.1 ± 8.6 U/mg. For the same molecule, the “MPO Activity (U/mg)” value in assay [4] (10 mg/kg intracolonically at 12 h intervals for one week, day 7, 10 mg/kg) is reported as “not prevented”. The Diarrhea result in assay [4] (incidence, 10 mg/kg intracolonically at 12 h intervals for one week, day 7, 10 mg/kg) is “not statistically significant and 3/8”. For the same molecule, the “Histology Score” value in assay [4] (percentage of luminal surface ulcerated, 10 mg/kg intracolonically for one week, day 7) came to 50.6 ± 10.5.
For the molecule `COc1ccc(C2CNC(=O)C2)cc1OC1CCCC1` (stereo not shown) [Rolipram, reference compound], the “inhibition of T-cell populations” value in the assay with naive CD4+ T-cells (all T-cell populations, control phosphodiesterase IV inhibitor) is “uniformly inhibitory”.
